Values joined by “and” are separate entries in the source; they are usually repeats but may differ in a detail not shown here. Equal values may be shown once.
What was measured:
[1] = system: rat cerebellar granule cell (CGC) cultures; assay: Dihydroethidine study to monitor intracellular superoxide production; format: cell-based; details: CGC cultures during H2O2 treatment, 11,12-EET 1.2 μM
Protocol: (§1) Cerebellar cortices of postnatal day 7 rat pups were isolated, incubated in 0.25% trypsin for 20 min and triturated with a 10-cc Falcon pipette. Cells were plated on Falcon plastic dishes ˜100,000 cells/cm^2 in BME medium containing 25 mM KCl. Cell cultures were maintained in a humidified 5% CO2 /37° C. incubator. 10 μM AraC was added from day 2-3 in vitro to suppress glial proliferation. Cells were studied at day 7-8 in vitro.
Dihydreothidine study to monitor intracellular superoxide production: 10 μl of dihydroethidine stock solution (1 mg/cc) in dimethylsulfoxide (DMSO) and 4 μl of H2O2 were added to 4cc of Eagle's Basal Medium (medium A). Each 2-cm^2 well of containing neuronal cell culture was preincubated with 11.12-EET (1.2 μM) for an hour and was replaced with 250 μL of medium A in the presence or absence of 11,12-EET (1.2 μM). […]
(§2) To test the effects of EET during oxidative stress, rat cerebellar granule cell (CGC) cultures were subjected to H2O2 treatment (225 μM for 10 min.). Less apoptosis was found at 24 hour when 11,12-EET (1.2 μM) was present compared to cell culture without 11,12-EET (51.7% vs. 87.6% respectively, p<0.01, scored by Hoechst stain for nuclear condensation). In addition, superoxide production (as monitored by oxidation of dihydroethidine) was decreased when 11,12-EET was present in CGC cultures during H2O2 treatment.

[2] = system: regional cerebral blood flow (rCBF) in mice; assay: Regional cerebral blood flow by laser Doppler flowmetry after MCA occlusion; format: in vivo
Protocol: In a separate set of ventilated, halothane-anesthetized animals, regional cerebral blood flow (rCBF) was determined at the margins (“penumbra”) of ischemic infarcts using laser Doppler flowmetry (Perimed, PF-2B, Stockholm, Sweden) and recorded on a MacLab/8 data acquisition system (AD Instruments, Milford, Mass.). the left femoral artery and vein were cannulated for blood pressure measurement, blood gas determination and drug administration, a fiberoptic probe (Perimed PF-319:2, diameter=0.5 mm) was fixed to the skull, 4 mm lateral and 2 mm posterior to bregma on the ipsilateral hemisphere and away from large pial vessels. This coordinate identifies the site on the convex brain surface within the vascular territory supplied by the distal segment of the MCA (Huang, Z et al., Science, 1994, 265:1883-1885; Yang, G et al., Stroke, 1994, 25:165-70). rCBF was recorded continuously before, during and after MCA occlusion. The mean values after MCA occlusion and before administration were taken as baseline, and the data thereafter were expressed as percentages of the baseline value. The percent change in cerebrovascular resistance was calculated using the following formula: Δ%R=Δ% MABP/Δ% rCBF, where Δ% MABP is percent change in mean arterial blood pressure.
(§3) Data is expressed as means ±SE. Statistical evaluation was performed by Student's t-test to compare infarct volumes between groups. Analysis of variance with repeated measures followed by Dunnett's t-test was used to test the significance of rCBF and resistance changes between groups. p<0.05 was considered statistically significant.
Physiological variables during laser-Doppler flowimetry in anesthetized, ventilated, EET-treated and vehicle-treated mice are shown in FIGS. 2 and 3. Values are reported as mean +/− SEM. CBF denotes cerebral blood flow; MABP indicates mean arterial blood pressure.
FIG. 2 is a graph showing regional CBF changes in EET-treated and vehicle-treated mice for 80 min after EET (300 μg/kg total dose) or vehicle infusion at a constant rate of 100 μl/kg/min over 20 min. Error bars denote standard error of the mean (SEM); CBF change with baseline control was determined by one-way ANOVA followed by Fisher's protected least-squares difference test. The increase in rCBF began at 5-10 minutes and achieved statistical significance at 10-15 minutes after infusion. Maximum values achieved at 40-60 min reached 50% above baseline levels.

[3] = system: mean arterial blood pressure (MABP) in mice; assay: Mean arterial blood pressure in animals with focal cerebral ischemia; format: in vivo; details: FIG. 3
Excerpt: (§4) Ischemia was produced by occluding the left middle cerebral artery (MCA) with a silicon-coated 8-0 nylon monofilament under anesthesia as described (Huang, Z et al., J Cereb Blood Flow Metab, 1996, 16:981-987, Huang, Z et al., Science, 1994, 265:1883-1885, Hara, H et al., J Cereb Blood Flow Metab, 1997, 1:515-526). Arterial blood pressure, heart rate, arterial oxygen pressure, and partial pressure of carbon dioxide were monitored as described (Huang, Z et al., J Cereb Blood Flow Metab, 1996, 16:981-987, Huang, Z et al., Science, 1994, 265:1883-1885, Hara, H et al., J Cereb Blood Flow Metab, 1997, 1:515-526).
In a separate set of ventilated, halothane-anesthetized animals, regional cerebral blood flow (rCBF) was determined at the margins (“penumbra”) of ischemic infarcts using laser Doppler flowmetry (Perimed, PF-2B, Stockholm, Sweden) and recorded on a MacLab/8 data acquisition system (AD Instruments, Milford, Mass.). the left femoral artery and vein were cannulated for blood pressure measurement, blood gas determination and drug administration, a fiberoptic probe (Perimed PF-319:2, diameter=0.5 mm) was fixed to the skull, 4 mm lateral and 2 mm posterior to bregma on the ipsilateral hemisphere and away from large pial vessels. […]

[4] = system: rat cerebellar granule cell (CGC) cultures; assay: H2O2 oxidative stress, apoptosis scored by Hoechst stain for nuclear condensation; format: cell-based; details: H2O2 225 μM for 10 min, 11,12-EET 1.2 μM present; without 11,12-EET 87.6%; p<0.01
Protocol: as §1, §2

[5] = system: mice subjected to middle cerebral artery occlusion; assay: Focal cerebral ischemia by middle cerebral artery occlusion, infarct volume; format: in vivo; details: for Infarct Volume, individual animal / Infarct Volume, Mean: mice, MCA occlusion; for Infarct Volume, individual animal: 24 hours
Excerpt: Young adult male mice (C57B1/J6, Jackson Laboratories) weighing 20-25 g, were given free access to food and water prior to experimentation.
as §4
11,12 EET (Sigma Chemical Co., St Louis, Mo.) or vehicle was administered by an infusion pump (Harvard Apparatus, South Natick, Mass.) with a tethering device (Instech, Plymouth Meeting, Pa.) into the femoral vein at the rate of 0.2 ml/hour for 2 hours beginning after the onset of ischemia to deliver a dose of 30, 100, and/or 300 μg/kg/hour. Control animals received the equivalent amount of vehicle alone. During infusion, the anesthesia was discontinued. […] After infusion, the animals were re-anesthetized with halothane and the venous catheter was removed. The filaments were withdrawn after 2 hours and after 24 hours, and mice were sacrificed. Brains were divided into five coronal 2-mm sections using a mouse brain matrix (RBM-200C, Activated Systems, Ann Arbor, Mich., USA). Infarction volume was quantitated with an image analysis system (M4, St. Catharines, Ontario, Canada) on 2% 2,3,5-triphenyltetrazolium chloride (Sigma Chemical Co., St Louis, Mo.) stained 2-mm slices.
as §3

## CCCCC/C=C\CC1OC1C/C=C\C/C=C\CCCC(=O)O (stereo not drawn) [EET, 11,12-epoxyeicosatrienoic acid]
[1]
  Superoxide production (oxidation of dihydroethidine): decreased
[2]; 300 μg/kg i.v.
  Time at which the increase in rCBF began: 5 to 10 min
[2]; 300 μg/kg i.v. total dose infused over 20 min, vehicle did not increase rCBF
  Effect on rCBF in parietal cortex: increased rCBF
[2]; 300 μg/kg i.v., after infusion
  Time at which the rCBF increase achieved statistical significance: 10 to 15 min
[2]; 300 μg/kg i.v., at 40-60 min
  Maximum rCBF above baseline levels: 50%
[3]
  Change in MABP, EET-treated vs. vehicle-treated animals: No significant changes
[4]
  Apoptosis at 24 hour: 51.7%
[5]; 300 μg/kg group, n=7, p<0.05
  Reduction of infarct volume in comparison to vehicle-treated animals: at least 41%
[5]; 300 μg/kg group, n=7, vehicle 34±3, means ±SE
  Infarct volume, of hemispheric volume: 20±3
[5]; EET 30 μg/kg i.v. infusion
  Infarct Volume, individual animal: 32.4 mm^3 and 43.0 mm^3 and 41.9 mm^3 and 27.7 mm^3 and 37.4 mm^3 and 23.7 mm^3
[5]; EET 30 μg/kg, n=6
  Infarct Volume, Mean: 34.3 mm^3
[5]; EET 100 μg/kg i.v. infusion
  Infarct Volume, individual animal: 34.1 mm^3 and 37.6 mm^3 and 22.4 mm^3 and 16.3 mm^3 and 24.5 mm^3 and 38.6 mm^3 and 11.8 mm^3
[5]; EET 100 μg/kg, n=7
  Infarct Volume, Mean: 26.5 mm^3
[5]; EET 300 μg/kg i.v. infusion
  Infarct Volume, individual animal: 32.5 mm^3 and 13.4 mm^3 and 13.1 mm^3 and 28.3 mm^3 and 11.8 mm^3 and 25.6 mm^3 and 13.6 mm^3
[5]; EET 300 μg/kg, n=7
  Infarct Volume, Mean: 19.7 mm^3

Source: patent US20020077355A1, “Use of epoxyeicosatrienoic acids in the treatment of cerebrovascular conditions” (priority 2000, published 2002)
